Data published in patent US8178658B2 (Dow AgroSciences, LLC, priority 2008, dated 2012).

What was measured:
[1] = test system: beet armyworm (BAW; Spodoptera exigua: Lepidoptera); assay: 96-well microtiter plate-based high throughput (HTS) diet bioassay on beet armyworm (BAW HTS); type: in vivo; conditions: BAW eggs, 12 μg test compound per well, mortality at 6 d post-treatment, mortality class
Method: (§1) Bioassays on beet armyworm (BAW; Spodoptera exigua: Lepidoptera) were conducted using either a 96-well microtiter plate-based high throughput (HTS) bioassay or a 128-well diet tray assay. The HTS assay is a based on a modification of Lewer et al. J. Nat. Prod. 2006, 69, 1506. BAW eggs of were placed on top of artificial diet (100 μl) in each well of 96-well microtiter plate. The diet was pretreated with test compounds (12 μg dissolved in 30 μL of DMSO-acetone-water mixture) layered on top of the diet using a liquid handling system and then allowed to dry for several hours. Infested plates were then covered with a layer of sterile cotton batting and the plate lid, and then held in the dark at 29° C. Mortality was recoded at 6 d post-treatment. Each plate had six replicates. The percent mortality was calculated from the average of the six replicates. In the case of the 128-well diet assay, three to five second instar BAW larvae were placed in each well (3 mL) of the diet tray that had been previously filled with 1 mL of artificial diet to which 50 μg/cm^2 of the test compound (dissolved in 50 μL of 90:10 acetone-water mixture) had been applied (to each of eight wells) and then allowed to dry. Trays were covered with a clear self-adhesive cover, and held at 25° C., 14:10 light-dark for six days. Percent mortality was recorded for the larvae in each well; activity in the eight wells was then averaged. In Table 7, under the BAW HTS or BAW 50 heading, an “A” means that the compound was tested and at least 50 percent mortality was observed whereas, “B” means that either (1) the compound was tested and less than 50 percent mortality was observed or (2) the compound was not tested.

[2] = test system: beet armyworm (BAW; Spodoptera exigua: Lepidoptera); assay: 128-well diet tray assay on beet armyworm (BAW 50); type: in vivo; conditions: 128-well diet tray assay, second instar BAW larvae, mortality class
Method: as §1

[3] = 96-well microtiter plate HTS diet assay
[4] = 50 μg/cm^2 of test compound on diet

Row | SMILES | BAW HTS ([1]; 96-well HTS diet bioassay) | BAW HTS [1, 3] | BAW 50 ug/cm2 [2, 4] | pest or weed control at 12 µg/well, 12 µg/well ([1]; Spodoptera exigua, 144 h, 96-well microtiter plate HTS diet assay, read-out: BAW HTS) [%] | BAW 50 ug/cm2 ([2]; 50 μg/cm2 of test compound on diet) | pest or weed control at 50 µg/cm2, 50 µg/cm2 ([2]; Spodoptera exigua, 144 h, 50 μg/cm^2 of test compound on diet, read-out: BAW 50 ug/cm2) [%]
1 | COC1C(C)OC(ON=Cc2ccc(C3=NN(c4ccc(OC(F)(F)F)cc4)CC3)cc2)C(OC)C1OC (stereo not shown) [Compound 15] | B (either (1) the compound was tested and less than 50 percent mortality was observed or (2) the compound was not tested) | B (either (1) the compound was tested and less than 50 percent mortality was observed or (2) the compound was not tested) | A (the compound was tested and at least 50 percent mortality was observed) | – | – | –
2 | COC1C(C)OC(ON=Cc2ccc(-n3cnc(-c4ccc(Br)cc4)c3)cc2)C(OC)C1OC (stereo not shown) [Compound 16] | A (the compound was tested and at least 50 percent mortality was observed) | A (the compound was tested and at least 50 percent mortality was observed) | B (either (1) the compound was tested and less than 50 percent mortality was observed or (2) the compound was not tested) | – | – | –
3 | COC1C(C)OC(ON=Cc2ccc(-c3cn(-c4cccc(Cl)c4C#N)cn3)cc2)C(OC)C1OC (stereo not shown) [Compound 17] | A (the compound was tested and at least 50 percent mortality was observed) | A (the compound was tested and at least 50 percent mortality was observed) | B (either (1) the compound was tested and less than 50 percent mortality was observed or (2) the compound was not tested) | – | – | –
4 | COC1C(C)OC(ON=Cc2ccccc2-c2cn(-c3ccc(OC(F)(F)F)cc3)cn2)C(OC)C1OC (stereo not shown) [Compound 19] | B (either (1) the compound was tested and less than 50 percent mortality was observed or (2) the compound was not tested) | B (either (1) the compound was tested and less than 50 percent mortality was observed or (2) the compound was not tested) | B (either (1) the compound was tested and less than 50 percent mortality was observed or (2) the compound was not tested) | – | – | –
5 | COC1C(C)OC(ON=Cc2c(F)ccc(-c3cn(-c4ccc(OC(F)(F)F)cc4)cn3)c2F)C(OC)C1OC (stereo not shown) [Compound 21] | A (the compound was tested and at least 50 percent mortality was observed) | A (the compound was tested and at least 50 percent mortality was observed) | B (either (1) the compound was tested and less than 50 percent mortality was observed or (2) the compound was not tested) | – | – | –
6 | COC1C(C)OC(ON=Cc2ccc(-c3cn(-c4cccc(F)n4)cn3)cc2)C(OC)C1OC (stereo not shown) [Compound 22] | B (either (1) the compound was tested and less than 50 percent mortality was observed or (2) the compound was not tested) | B (either (1) the compound was tested and less than 50 percent mortality was observed or (2) the compound was not tested) | B (either (1) the compound was tested and less than 50 percent mortality was observed or (2) the compound was not tested) | – | – | –
7 | COC1C(C)OC(ON=Cc2ccc(-c3cn(-c4cc(I)ccn4)cn3)cc2)C(OC)C1OC (stereo not shown) [Compound 23] | B (either (1) the compound was tested and less than 50 percent mortality was observed or (2) the compound was not tested) | B (either (1) the compound was tested and less than 50 percent mortality was observed or (2) the compound was not tested) | B (either (1) the compound was tested and less than 50 percent mortality was observed or (2) the compound was not tested) | – | – | –
8 | COC1C(C)OC(ON=Cc2ccc(-c3cn(-c4cc(F)cc(F)c4)cn3)cc2)C(OC)C1OC (stereo not shown) [Compound 24] | A (the compound was tested and at least 50 percent mortality was observed) | A (the compound was tested and at least 50 percent mortality was observed) | B (either (1) the compound was tested and less than 50 percent mortality was observed or (2) the compound was not tested) | – | – | –
9 | COc1ccc(-c2cn(-c3ccc(OC(F)(F)F)cc3)cn2)cc1C=NOC1OC(C)C(OC)C(OC)C1OC (stereo not shown) [Compound 25] | B (either (1) the compound was tested and less than 50 percent mortality was observed or (2) the compound was not tested) | B (either (1) the compound was tested and less than 50 percent mortality was observed or (2) the compound was not tested) | B (either (1) the compound was tested and less than 50 percent mortality was observed or (2) the compound was not tested) | – | – | –
10 | CO[C@@H]1[C@@H](OC)[C@H](C)O[C@@H](O/N=C/c2ccc(-c3cn(-c4ccc(OC(F)(F)F)cc4)cn3)cc2)[C@@H]1OC [Compound 26, 4-[1-(4-Trifluoromethoxyphenyl)-1H-imidazol-4-yl]-benzaldehyde O-((2S,3R,4R,5S,6S)-3,4,5-trimethoxy-6-methyl-tetrahydropyran-2-yl)-oxime] | A (the compound was tested and at least 50 percent mortality was observed) | – | – | > 50 | A (the compound was tested and at least 50 percent mortality was observed) | > 50
11 | CCCc1ccc(-n2cnc(-c3ccc(C=NOC4OC(C)C(OC)C(OC)C4OC)cc3)c2)cc1 (stereo not shown) [Compound 27] | A (the compound was tested and at least 50 percent mortality was observed) | A (the compound was tested and at least 50 percent mortality was observed) | A (the compound was tested and at least 50 percent mortality was observed) | – | – | –
12 | CCCc1ccc(-n2cnc(-c3ccc(/C=N/O[C@@H]4O[C@@H](C)[C@H](OC)[C@@H](OCC)[C@H]4OC)cc3)c2)cc1 [Compound 29] | B (either (1) the compound was tested and less than 50 percent mortality was observed or (2) the compound was not tested) | B (either (1) the compound was tested and less than 50 percent mortality was observed or (2) the compound was not tested) | A (the compound was tested and at least 50 percent mortality was observed) | – | – | –
13 | COC1C(C)OC(ON=Cc2ccc(-c3cn(-c4ccc(OC(F)(F)F)cc4)cn3)cc2)C(OC)C1OC (stereo not shown) [Compound 30] | A (the compound was tested and at least 50 percent mortality was observed) | A (the compound was tested and at least 50 percent mortality was observed) | A (the compound was tested and at least 50 percent mortality was observed) | – | – | –
14 | COC1C(C)OC(ON=Cc2ccc(-c3cn(-c4ccc(C(F)(F)F)cn4)cn3)cc2)C(OC)C1OC (stereo not shown) [Compound 32] | A (the compound was tested and at least 50 percent mortality was observed) | A (the compound was tested and at least 50 percent mortality was observed) | A (the compound was tested and at least 50 percent mortality was observed) | – | – | –
15 | CCOC1C(C)OC(ON=Cc2ccc(-c3cn(-c4ccc(C(F)(F)F)cn4)cn3)cc2)C(OCC)C1OCC (stereo not shown) [Compound 33] | A (the compound was tested and at least 50 percent mortality was observed) | A (the compound was tested and at least 50 percent mortality was observed) | A (the compound was tested and at least 50 percent mortality was observed) | – | – | –
16 | COC1C(C)OC(ON=Cc2ccc(-c3cn(-c4cc(Br)ccc4Cl)cn3)cc2)C(OC)C1OC (stereo not shown) [Compound 34] | B (either (1) the compound was tested and less than 50 percent mortality was observed or (2) the compound was not tested) | B (either (1) the compound was tested and less than 50 percent mortality was observed or (2) the compound was not tested) | A (the compound was tested and at least 50 percent mortality was observed) | – | – | –
17 | COc1ccc(C=NOC2OC(C)C(OC)C(OC)C2OC)cc1-c1cn(-c2ccc(OC(F)(F)F)cc2)cn1 (stereo not shown) [Compound 35] | B (either (1) the compound was tested and less than 50 percent mortality was observed or (2) the compound was not tested) | B (either (1) the compound was tested and less than 50 percent mortality was observed or (2) the compound was not tested) | A (the compound was tested and at least 50 percent mortality was observed) | – | – | –
18 | COC1C(C)OC(ON=Cc2ccc(-c3cn(-c4ccc(OC(F)(F)F)cc4)cn3)cc2F)C(OC)C1OC (stereo not shown) [Compound 36] | B (either (1) the compound was tested and less than 50 percent mortality was observed or (2) the compound was not tested) | B (either (1) the compound was tested and less than 50 percent mortality was observed or (2) the compound was not tested) | A (the compound was tested and at least 50 percent mortality was observed) | – | – | –
19 | COC1C(C)OC(ON=Cc2ccc(-c3cn(-c4ccc(OCC(F)(F)F)cc4)cn3)cc2)C(OC)C1OC (stereo not shown) [Compound 37] | B (either (1) the compound was tested and less than 50 percent mortality was observed or (2) the compound was not tested) | B (either (1) the compound was tested and less than 50 percent mortality was observed or (2) the compound was not tested) | A (the compound was tested and at least 50 percent mortality was observed) | – | – | –
